Test results reported in patent US5789395A, “Method of using tetracycline compounds for inhibition of endogenous nitric oxide production” (The Research Foundation of State University of New York, priority 1996, dated 1998).
Converted amounts (≈) assume the structure as drawn. “Also recorded” adds a separate entry of the source.

Assays:
iNOS mRNA = iNOS mRNA expression in LPS-stimulated RAW cells (Northern blot); format: cell-based, murine; conditions: Mus musculus, normalized against β-actin; for inhibition at 20 µg/mL: 20 μg/mL; for inhibition at 40 µg/mL: 40 μg/mL; for inhibition at 80 µg/mL: 80 μg/mL
Description: Northern blot analysis of the iNOS MRNA expressed by the cells was then carried out to evaluate precisely the effect of iNOS expression in the presence of doxycycline and minocycline. The probes again were the iNOS and β-actin CDNA probes described above.
In this case, total RNA was isolated using TRI Reagent (MRC Inc., Cincinnati, Ohio). […] Briefly, 30 μg of RNA was subjected to electrophoresis in 1% agarose formaldehyde gel. The gel was then transferred via capillary action onto a nylon membrane (Zeta Probe, Bio-Rad Laboratories, Melville, N.Y.). The membrane was hybridized with [^32 P]-dCTP-labeled iNOS CDNA (4 kb SmaI fragment), a kind gift from Dr. James Cunningham (Harvard Medical School, Boston, Mass.). After hybridization, the blot was exposed to Kodak X-ray film (Kodak, Rochester, N.Y.) for 24-48 h with intensifying screens at -70° C. The β-actin probe was purchased from ClonTech (Palo Alto, Calif.) and probed as described above. Quantitation of the intensity of the iNOS/β-actin bands was performed using a phosphoimager (Molecular Dynamics, Sunnyvale, Calif.).

iNOS [1] = biological target: T1, iNOS (Mus musculus, UniProt P29477); assay: direct effect on specific activity of iNOS in cell-free extracts (L-arginine-to-L-citrulline conversion); format: biochemical, murine; conditions: for effect on the specific activity of iNOS in cell-free extracts: 20-80 μg/mL, 15 min preincubation; for effect on an ongoing L-arginine-to-L-citrulline reaction catalyzed by iNOS: cell-free extracts
T1 construct: prepared cell-free extracts as a source of iNOS enzyme; (cells); host or cells: RAW 264.7 murine macrophages, LPS-stimulated
Description: To evaluate the direct effect of doxycycline and minocycline on iNOS activity, we induced RAW 264.7 cells with LPS for 16 h in the absence of these agents and prepared cell-free extracts as a source of iNOS enzyme in the L-arginine-to-L-citrulline conversion assay.
Separate aliquots of the enzyme-containing cell-free extracts were preincubated for 15 min with 20-80 μg/ mL doxycycline, 20-80 μg/mL minocycline, 1 mM N-acetylimidazole and 200 μM L-NMMA, respectively, before the enzyme reaction was initiated by adding the co-factors. Various modulators including methanol (MeOH), the carrier for NAI (N-acetylimidazole), were added 15 min prior to the addition of the co-factors to initiate the iNOS reaction, as described. The specific activity was calculated and percent inhibition was compare to the original LPS-stimulated extract; 100% specific activity was 200 pmol citrulline/min/mg protein. The data shown in FIG. 4 represent one of two similar experiments.

iNOS [2] = assay: iNOS activity (L-arginine-to-L-citrulline) in cell-free extracts of cells treated with modulator before LPS; format: cell-based, murine
Description: Murine macrophage cells (RAW 264.7) were incubated with 20-80 μg/mL doxycycline or minocycline, 10 μM hydrocortisone (Sigma Chemical Co., St. Louis, Mo.), or 75 μM L-NMMA for 1-2 h, followed by addition of LPS at 100 ng/mL and incubation for 16-18 h. Cell-free extracts were prepared at the end of each time period. Specific activity of iNOS was determined in the cell-free extracts by monitoring the conversion of L-[^3 H]-arginine to L-[^3 H]-citrulline as described by Amin et al. (1995b) and Vyas et al. (1996).
Cell-free extracts were prepared as follows: Following induction by incubation with LPS, the cells were pelleted at 4° C. and resuspended in Tris buffer (10 mM, pH 7.4) containing 10 μg/mL each chymostatin, antipain, leupeptin and pepstatin, 1 mM DTT and 1 mM PMSF. Cells were lysed in a Polytron PT 1200 homogenizer (Kinematica AG, Switzerland) after 3 cycles of rapid freeze-thawing. The lysate was centrifuged at 16,000 rpm for 60 min at 4° C., and the supernatants were used as cell-free extracts.
The protein in the extracts was measured by BCA assay reagent using BSA as standard (Smith et al. 1985). The reaction mixture for iNOS assay consists of Tris 50 mM (pH 7.8); BSA 1 mg/mL; DTT 1 mM; CaCl2, 2 mM; FAD 10 μM; BH4 10,μM; L-arginine 30 μM; NADPH 1 mM. The reaction mixture was spiked with 1μL (250 nM) of L-[^3 H]-arginine (Dupont NEN, Boston, Mass.) (1 mCi/mL=37.0 MBq/mL). After 20 min the assays were terminated by heating the reaction mixture at 90° C. for 5 min. Ten microiters (≈100,000 cpm) of the supernatant was spotted on activated AVICEL TLC plates (Analtech, Newark, Del.). The TLC plates were developed in a solvent system consisting of ethanol:water:ammonia (80:16:4). Quantitation of the spot for L-[^3 H]-citrulline was performed by a Bioscan System 200 Imaging Scanner.

[3] = tested on: inducible OA-NOS in OA-affected cartilage; assay: NO (nitrite) release from OA-affected cartilage in organ culture; format: cell-based, human; conditions: for inhibition of NO production in OA-affected cartilage: 5-80 μg/mL, 24-72 h, ex vivo; for IC50: Homo sapiens, 72 h
Excerpt: We examined whether tetracyclines, e.g., doxycycline or minocycline, could block human OA-NOS activity under ex vivo conditions. Generally accepted pharmacologically relevant concentrations were selected for this study based on previous reports (Greenwald 1994, Yu et al. 1991, Cole et al. 1994, Mallya et al. 1994). OA-affected cartilage was obtained from patients with advanced OA undergoing knee replacement surgery and free of steroidal/nonsteroidal antiinflammatory drugs for at least 2 wk before surgery. OA-affected cartilage slices (FIGs. 1A-1C) were incubated in 0.1% BSA/endotoxin-free medium with 5-80 μg/mL of doxycycline or minocycline (Sigma Chemical Co., St. Louis, Mo.) for 24, 48 and 72 h in ex vivo conditions.
The assay of OA-iNOS in organ culture was basically carried out as described previously (Amin et al. 1995a). Briefly, the OA-affected cartilage was cultured in the presence or absence (Control) of doxycycline and minocycline at 5-80 μg/mL, for 24-72 h in an incubator (37° C.). Activity of NOS was monitored at different time intervals by estimating the amount of the stable end-product, nitrite, in the medium by a modified Griess reaction (Gilliam et al. 1993) using an ELISA reader. The amount of NO spontaneously released (as measured by nitrite accumulation) at 0, 24, 48 and 72 h was 0, 4.8±0.38, 16.4±0.7, and 17.8±0.9 μM, respectively. Data are expressed as μM nitrite released±(SD), n=3-4. The statistics were derived using unpaired Student's t test. FIGS. 1A-1C show a time series of graphs (1A=24 h; 1B=48 h; and IC=72 h) summarizing data representing one of three identical experiments with samples from different patients.

Structure (SMILES) | inhibition at 20 µg/mL (iNOS mRNA) [%] | inhibition at 40 µg/mL (iNOS mRNA) [%] | inhibition at 80 µg/mL (iNOS mRNA) [%] | effect on the specific activity of iNOS in cell-free extracts (iNOS [1]) | effect on an ongoing L-arginine-to-L-citrulline reaction catalyzed by iNOS (iNOS [1]) | IC50 to inhibit iNOS activity in cell lysates (iNOS [2]) [µg/mL] | inhibition of iNOS activity (iNOS [2]; 20 μg/mL) [%] | inhibition of iNOS activity (iNOS [2]; 40 μg/mL) [%] | inhibition of iNOS activity (iNOS [2]; 80 μg/mL) [%] | inhibition of NO production in OA-affected cartilage [3] | IC50 [3] [µg/mL]
C[C@H]1c2cccc(O)c2C(O)=C2C(=O)[C@]3(O)C(O)=C(C(N)=O)C(=O)[C@@H](N(C)C)[C@@H]3[C@@H](O)[C@@H]21 [doxycycline] | 68 | 75 | 79 | minimal effect; also recorded: no significant effect | could not block | 20 to 30 | 57 | 72 | 85 | significantly inhibited NO production in OA-affected cartilage in a dose-dependent manner | 32 (≈ 72 µM)
CN(C)c1ccc(O)c2c1C[C@H]1C[C@H]3[C@H](N(C)C)C(O)=C(C(N)=O)C(=O)[C@@]3(O)C(O)=C1C2=O [minocycline] | 39 | 49 | 77 | minimal effect; also recorded: no significant effect | could not block | 20 to 30 | 45 | 69 | 69 | significantly inhibited NO production in OA-affected cartilage in a dose-dependent manner | 54 (≈ 118 µM)
